Assays:
hcGAS [1] = target: T1, hcGAS (Homo sapiens, UniProt Q8N884); assay: hcGAS LCMS assay (direct measurement of cGAMP production); assay type: biochemical; settings: for IC50: 0.5 nM hcGAS, 100 μM ATP, 100 μM GTP, 25 nM dsDNA, 4 h incubation
How it was run: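 Direct LC/MS readout of cGAMP formed: 4-h enzyme–substrate incubation with compound, stopped by acetonitrile/water quench carrying isotope-labelled cGAMP (0.15 mM) as standard. Potency reported as IC50 ranges.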

hcGAS [2] = target: T1, hcGAS; assay: hcGAS Kinase-Glo assay (ATP depletion); assay type: biochemical; settings: for IC50: 40 nM hcGAS, 100 μM ATP, 100 μM GTP, 25 nM dsDNA, 3 h incubation
Description: cGAS catalyzes the cyclization of ATP and GTP to produce cGAMP, which is the activating ligand of STING. Human cGAS (hcGAS) inhibition can thus be quantified by measuring how much cGAMP is formed either indirectly, by monitoring ATP-depletion as in the hcGAS Kinase-Glo assay (as described below), or directly, such as using the hcGAS LCMS assay (as described below).
(i) hcGAS Kinase-Glo Assay
Compounds were tested for their human-cGAS […] inhibition activity using the methodology reported in Lama et al., “Development of human cGAS-specific small molecule inhibitors for repression of dsDNA-triggered interferon expression”, Nature Communications 10, Article number: 2261 (2019), with slight changes to some conditions as shown in Table B.
The results of the assay, expressed in IC50 values, are reported in Table D with the following designations: A represents an IC50 value<0.01 μM; B represents an IC50 value≥0.01 μM and <0.03 μM; C represents an IC50 value≥0.03 μM and <0.1 μM; D represents an IC50 value≥0.1.

[3] = compared with Compound 103 (without —CH2OCH3)

T1 sequence (Q8N884 whole entry): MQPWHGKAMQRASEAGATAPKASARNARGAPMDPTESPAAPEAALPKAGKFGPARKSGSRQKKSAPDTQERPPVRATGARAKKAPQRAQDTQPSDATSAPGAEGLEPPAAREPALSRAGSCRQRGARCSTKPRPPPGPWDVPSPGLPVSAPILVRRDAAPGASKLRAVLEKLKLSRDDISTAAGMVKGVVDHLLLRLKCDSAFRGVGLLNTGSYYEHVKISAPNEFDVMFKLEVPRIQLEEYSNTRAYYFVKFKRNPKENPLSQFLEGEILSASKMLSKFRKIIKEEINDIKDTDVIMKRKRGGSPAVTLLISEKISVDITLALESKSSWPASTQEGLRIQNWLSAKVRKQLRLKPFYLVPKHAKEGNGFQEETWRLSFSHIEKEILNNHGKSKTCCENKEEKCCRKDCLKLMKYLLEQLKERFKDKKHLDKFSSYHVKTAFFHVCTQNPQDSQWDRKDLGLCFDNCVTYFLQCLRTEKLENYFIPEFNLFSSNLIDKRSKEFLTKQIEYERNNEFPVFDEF

| IC50 (hcGAS [1]) [µM] | IC50 (hcGAS [2]) [µM] | inhibitory activity in hcGAS LCMS assay (hcGAS [1]; [3]) | inhibitory activity in hcGAS Kinase glo assay (hcGAS [2]; [3]) | Structure (SMILES) |
| --- | --- | --- | --- | --- |
| 0.005 to 0.02 | 0.01 to 0.03 |  |  | COc1c(N2C[C@H](O)[C@H](OC)C2)cc(C(=O)Nc2nnc(-n3nccc3C)s2)oc1=O (racemic) [Rac-68, 4-((3S,4R)-3-hydroxy-4-methoxypyrrolidin-1-yl)-3-methoxy-N-(5-(5-methyl-1H-pyrazol-1-yl)-1,3,4-thiadiazol-2-yl)-2-oxo-2H-pyran-6-carboxamide] |
| < 0.005 | 0.01 to 0.03 |  |  | COc1c(N[C@@H]2CCC[C@@H]2O)cc(C(=O)Nc2nnc(-n3nccc3C)s2)oc1=O (racemic) [Rac-23, 4-(((cis)-2-hydroxycyclopentyl)amino)-3-methoxy-N-(5-(5-methyl-1H-pyrazol-1-yl)-1,3,4-thiadiazol-2-yl)-2-oxo-2H-pyran-6-carboxamide] |
| 0.005 to 0.02 | 0.01 to 0.03 |  |  | COc1c(N[C@@H]2CC[C@H]2OC)cc(C(=O)Nc2nnc(-n3nccc3C)s2)oc1=O (racemic) [Rac-36, 3-methoxy-4-(((1R,2R)-2-methoxycyclobutyl)amino)-N-(5-(5-methyl-1H-pyrazol-1-yl)-1,3,4-thiadiazol-2-yl)-2-oxo-2H-pyran-6-carboxamide] |
| 0.005 to 0.02 | 0.01 to 0.03 |  |  | COCC(C)(C)Nc1cc(C(=O)Nc2nnc(-n3nccc3C)s2)oc(=O)c1OC [Compound 76, 3-methoxy-4-((1-methoxy-2-methylpropan-2-yl)amino)-N-(5-(5-methyl-1H-pyrazol-1-yl)-1,3,4-thiadiazol-2-yl)-2-oxo-2H-pyran-6-carboxamide] |
| 0.005 to 0.02 | 0.01 to 0.03 |  |  | COc1c(N[C@H]2CCC[C@H]2OC)cc(C(=O)Nc2nnc(-n3nccc3C)s2)oc1=O (racemic) [Rac-14, 3-methoxy-4-(((1S,2R)-2-methoxycyclopentyl)amino)-N-(5-(5-methyl-1H-pyrazol-1-yl)-1,3,4-thiadiazol-2-yl)-2-oxo-2H-pyran-6-carboxamide] |
| 0.02 to 0.06 | 0.03 to 0.1 |  |  | COc1c(N(C)C)cc(C(=O)Nc2nnc(-n3nccc3C)s2)oc1=O [Compound 106, 4-(dimethylamino)-3-methoxy-N-(5-(5-methyl-1H-pyrazol-1-yl)-1,3,4-thiadiazol-2-yl)-2-oxo-2H-pyran-6-carboxamide] |
| 0.005 to 0.02 | 0.01 to 0.03 |  |  | COc1c(N[C@H]2CC[C@H](OC)C2)cc(C(=O)Nc2nnc(-n3nccc3C)s2)oc1=O (racemic) [Rac-109, 3-methoxy-4-(((trans)-3-methoxycyclopentyl)amino)-N-(5-(5-methyl-1H-pyrazol-1-yl)-1,3,4-thiadiazol-2-yl)-2-oxo-2H-pyran-6-carboxamide] |
| 0.005 to 0.02 | 0.01 to 0.03 |  |  | COc1c(N[C@H]2CC[C@@H](OC)C2)cc(C(=O)Nc2nnc(-n3nccc3C)s2)oc1=O (racemic) [Rac-108, 3-methoxy-4-(((cis)-3-methoxycyclopentyl)amino)-N-(5-(5-methyl-1H-pyrazol-1-yl)-1,3,4-thiadiazol-2-yl)-2-oxo-2H-pyran-6-carboxamide] |
| 0.005 to 0.02 | 0.01 to 0.03 |  |  | COc1c(N[C@@H]2CC[C@@H]2O)cc(C(=O)Nc2nnc(-n3nccc3C)s2)oc1=O (racemic) [Rac-43, 4-(((1R,2S)-2-hydroxycyclobutyl)amino)-3-methoxy-N-(5-(5-methyl-1H-pyrazol-1-yl)-1,3,4-thiadiazol-2-yl)-2-oxo-2H-pyran-6-carboxamide] |
| 0.005 to 0.02 | 0.03 to 0.1 |  |  | COc1c(NCCS(C)(=O)=O)cc(C(=O)Nc2nnc(-n3nccc3C)s2)oc1=O [Compound 183] |
| 0.005 to 0.02 | 0.03 to 0.1 |  |  | COCCNc1cc(C(=O)Nc2nnc(-n3nccc3C)s2)oc(=O)c1OC [Compound 75, 3-methoxy-4-((2-methoxyethyl)amino)-N-(5-(5-methyl-1H-pyrazol-1-yl)-1,3,4-thiadiazol-2-yl)-2-oxo-2H-pyran-6-carboxamide] |
| < 0.005 | < 0.01 | improved inhibitory activity | improved inhibitory activity | COC[C@H](Nc1cc(C(=O)Nc2nnc(-n3nccc3C)s2)oc(=O)c1OC)c1ccccc1 [Compound 114, (R)-3-methoxy-4-((2-methoxy-1-phenylethyl)amino)-N-(5-(5-methyl-1H-pyrazol-1-yl)-1,3,4-thiadiazol-2-yl)-2-oxo-2H-pyran-6-carboxamide] |
| 0.005 to 0.02 | 0.01 to 0.03 |  |  | COc1c(NC(C)C)cc(C(=O)Nc2nnc(-c3c(Cl)ccn3C)s2)oc1=O [Compound 131, N-(5-(3-chloro-1-methyl-1H-pyrrol-2-yl)-1,3,4-thiadiazol-2-yl)-4-(isopropylamino)-3-methoxy-2-oxo-2H-pyran-6-carboxamide] |
| 0.005 to 0.02 | 0.01 to 0.03 |  |  | COc1c(N[C@H]2CCS(=O)(=O)C2)cc(C(=O)Nc2nnc(-n3nccc3C)s2)oc1=O [Compound 62, (S)-4-((1,1-dioxidotetrahydrothiophen-3-yl)amino)-3-methoxy-N-(5-(5-methyl-1H-pyrazol-1-yl)-1,3,4-thiadiazol-2-yl)-2-oxo-2H-pyran-6-carboxamide] |
| 0.005 to 0.02 | 0.01 to 0.03 |  |  | COc1c(NC[C@@H](C)OC)cc(C(=O)Nc2nnc(-n3nccc3C)s2)oc1=O [Compound 119, (R)-3-methoxy-4-((2-methoxypropyl)amino)-N-(5-(5-methyl-1H-pyrazol-1-yl)-1,3,4-thiadiazol-2-yl)-2-oxo-2H-pyran-6-carboxamide] |
| 0.005 to 0.02 | 0.01 to 0.03 |  |  | COCCNc1cc(C(=O)Nc2nnc(-c3cscc3Cl)s2)oc(=O)c1OC [Compound 136, N-(5-(4-chlorothiophen-3-yl)-1,3,4-thiadiazol-2-yl)-3-methoxy-4-((2-methoxyethyl)amino)-2-oxo-2H-pyran-6-carboxamide] |
| 0.005 to 0.02 | 0.01 to 0.03 |  |  | COc1c(N[C@H]2CC[C@@H](O)CC2)cc(C(=O)Nc2nnc(-n3nccc3C)s2)oc1=O [Compound 220] |
| 0.005 to 0.02 | 0.01 to 0.03 |  |  | COc1c(N[C@H]2CC[C@H](O)C2)cc(C(=O)Nc2nnc(-n3nccc3C)s2)oc1=O (racemic) [Rac-6, 4-(((1S,3S)-3-hydroxycyclopentyl)amino)-3-methoxy-N-(5-(5-methyl-1H-pyrazol-1-yl)-1,3,4-thiadiazol-2-yl)-2-oxo-2H-pyran-6-carboxamide] |
| 0.005 to 0.02 | < 0.01 |  |  | COc1c(NCCO)cc(C(=O)Nc2nnc(-c3c(Cl)ccn3C)s2)oc1=O [Compound 129, N-(5-(3-chloro-1-methyl-1H-pyrrol-2-yl)-1,3,4-thiadiazol-2-yl)-4-((2-hydroxyethyl)amino)-3-methoxy-2-oxo-2H-pyran-6-carboxamide] |
| 0.005 to 0.02 | 0.01 to 0.03 |  |  | COc1c(N2CC[C@H](O)C2)cc(C(=O)Nc2nnc(-n3nccc3C)s2)oc1=O [Compound 110, (S)-4-(3-hydroxypyrrolidin-1-yl)-3-methoxy-N-(5-(5-methyl-1H-pyrazol-1-yl)-1,3,4-thiadiazol-2-yl)-2-oxo-2H-pyran-6-carboxamide] |
| 0.005 to 0.02 | 0.01 to 0.03 |  |  | COC[C@@H]1CCN(c2cc(C(=O)Nc3nnc(-n4nccc4C)s3)oc(=O)c2OC)C1 [Compound 1, (R)-3-methoxy-4-(3-(methoxymethyl)pyrrolidin-1-yl)-N-(5-(5-methyl-1H-pyrazol-1-yl)-1,3,4-thiadiazol-2-yl)-2-oxo-2H-pyran-6-carboxamide] |

Reference: patent US20240270740A1, “INHIBITORS OF CYCLIC GMP-AMP SYNTHASE AND USES THEREOF” (Ventus Therapeutics U.S., Inc., priority 2022, published 2024)
